Test system: Male beagle dogs
Assay: canine telemetry protocol, blood pressure reduction efficacy
Format: in vivo
Conditions: change from baseline, 3 mg/kg, oral gavage; for ΔPP (mm Hg) 1-6 h / ΔPP (mm Hg) 6-12 h / ΔPP (mm Hg) 12-18 h: pulse pressure; for ΔSBP (mm Hg) 1-6 h / ΔSBP (mm Hg) 6-12 h / ΔSBP (mm Hg) 12-18 h: systolic blood pressure
Method: Compounds of the invention were evaluated for blood pressure reduction efficacy using the following canine telemetry protocol described below.
Male beagle dogs (approximately 1-3 years old) with a body weight of between 10 and 16 kg were surgically implanted with DSI radiotelemetry devices (model: TL11M2-D70-PCT). Briefly, under an inhalant anesthesia, isoflurane/oxygen mixture (1-3.5%/to effect), the body of the telemetry device was positioned and secured intra-abdominally. Subsequently, the arterial catheter of the telemetry device was passed subcutaneously to the inguinal area and introduced into the femoral artery and advanced to the level of the descending aorta. The catheter was secured with 2-0 silk ligatures. The muscle and underlying fascia was closed over the catheter using absorbable suture and the skin was closed using non-absorbable suture. The animals were allowed a minimum recovery period of 2 weeks between surgery and the evaluation of test compounds.
Compound evaluation consisted of a 3 day paradigm at a 3 mg/kg dose. On the first day, no compounds were administered during a 24 hour period of baseline data collection. Blood pressure and heart rate data were collected continuously for one minute periods at 10 minute intervals. On the days of compound administration half the animals received test article with the other half receiving the vehicle used for compound formulation. All test materials were administered by oral gavage in a volume of 1 mL/kg. Data are expressed either as raw values (mm Hg or beats per minute) or as the change from baseline (average value for about 12 hours in low activity period prior to dosing). Change is SBP (systolic blood pressure) and PP (pulse pressure) over time is shown below: […]

SMILES | ΔPP (mm Hg) 1-6 h [mm Hg] | ΔPP (mm Hg) 6-12 h [mm Hg] | ΔPP (mm Hg) 12-18 h [mm Hg] | ΔSBP (mm Hg) 1-6 h [mm Hg] | ΔSBP (mm Hg) 6-12 h [mm Hg] | ΔSBP (mm Hg) 12-18 h [mm Hg]
CC(C)(C)NC(=O)N1CC[C@@H](O/N=[N+](\[O-])NC(C)(C)C)C1 [Example 9, O^2-[(3R)-1-(tert-butylcarbamoyl)pyrrolidin-3-yl]1-(N-tert-butylamino)diazen-1-ium-1,2-diolate] | −23 | −27 | −11 | −24 | −25 | −18
CC(C)(C)N/[N+]([O-])=N/OC1CCN(c2ccc(C#N)cn2)CC1 [Example 22, O^2-[1-(5-cyanopyridin-2-yl)piperidin-4-yl]1-(N-tert-butylamino)diazen-1-ium-1,2-diolate] | −15 | −17 | −16 | −19 | −18 | −21
CC(C)(C)N/[N+]([O-])=N/O[C@@H]1CCN(c2cccc(C#N)c2)C1 [Example 32, O^2-[(3R)-1-(3-cyanophenyl)pyrrolidin-3-yl]1-(N-tert-butylamino)diazen-1-ium-1,2-diolate] | −7 | −12 | −13 | −10 | −17 | −17
Cc1cccc(N2CC[C@@H](O/N=[N+](\[O-])NC(C)(C)C)C2=O)c1 [Example 36, O^2-[(3R)-1-(3-methylphenyl)-2-oxopyrrolidin-3-yl]1-(N-tert-butylamino)diazen-1-ium-1,2-diolate] | −9 | −7 | −4 | −23 | −17 | −14
